One block for each compound: values may come before it.
Assays:
male rats = test: Open field test after BNST infusion, PACAP-induced anxiety-related behavior; type: in vivo, rat; conditions: FIG. 8
Source text: Compound I-1 blocks PACAP-induced anxiety-related behavior. In FIG. 8, male rats were cannulated bilaterally into the BNST. […] PACAP infusions into the BNST produced stress/anxiety-like responses as reflected by decreased center field times (duration in seconds). […] In the right panel, the open field entry data was not affected by changes in animal locomotion. Asterisk, statistically different from other groups. Note: I-1+PACAP returned open field times to untreated control levels.

PAC1 receptor [1] = molecular target: T1, PAC1 receptor (Homo sapiens, UniProt P41586); test: PACAP-stimulated calcium signaling, Fura-2 assay in HEK PAC1-EGFP cell line; type: cell-based; conditions: for PAC1 receptor-mediated calcium flux: concentration not given
T1 construct: expressed in transfected cells
T1 sequence (P41586 21-468): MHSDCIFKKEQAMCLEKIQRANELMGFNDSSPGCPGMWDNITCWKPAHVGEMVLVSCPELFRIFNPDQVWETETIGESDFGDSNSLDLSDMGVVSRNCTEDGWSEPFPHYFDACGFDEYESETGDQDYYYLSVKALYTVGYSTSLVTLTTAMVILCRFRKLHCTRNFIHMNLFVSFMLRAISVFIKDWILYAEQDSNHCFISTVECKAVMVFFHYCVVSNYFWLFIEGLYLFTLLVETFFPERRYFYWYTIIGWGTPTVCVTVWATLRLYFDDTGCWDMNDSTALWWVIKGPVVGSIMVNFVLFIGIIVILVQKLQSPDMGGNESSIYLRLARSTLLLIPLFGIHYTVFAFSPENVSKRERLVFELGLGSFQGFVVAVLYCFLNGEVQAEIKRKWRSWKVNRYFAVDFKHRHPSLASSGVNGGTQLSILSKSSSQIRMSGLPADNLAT
Method: (§1) Compound I-1 blocks PAC1 receptor internalization and calcium signaling. […] Upon 25 nM PACAP application (15 min), the tagged receptor is internalized into intracellular endosomes for ERK signaling (PACAP, middle panel). However, pretreatment of the culture (15 min) with 10-25 μM I-1 blocked PACAP-stimulated receptor internalization (PACAP+I-1); the PAC1-EGFP receptors remained on the cell surface. In FIG. 2, using the same HEK PAC1-EGFP cell line, PACAP rapidly stimulated calcium signaling in Fura-2 assays. The response was blocked approximately 50% with 2.5 μM compound I-1, and was abolished with 25 μM I-1.
The PAC1-EGFP HEK cell lines were preloaded with Fura-2 for calcium imaging. PACAP alone produced robust calcium signals.

PAC1 receptor [2] = molecular target: T1, PAC1 receptor; test: PACAP-stimulated ERK phosphorylation/activation in HEK PAC1-EGFP receptor cell line; type: cell-based; conditions: for PAC1 receptor endosomal/ligand-mediated ERK activation: concentration not given
Method: In FIG. 3, using the stably expressing HEK PAC1-EGFP receptor cell line, compound I-1 blocks 25 nM PACAP-stimulated ERK phosphorylation and activation (p42 and p44 ERK bands) in a dose-dependent manner. […] In similar assays, the other compounds (I-2 to I-26) can block PACAP-stimulated ERK signaling with an apparent IC50 of 25 μM.
In FIG. 5, the compound I-20 acts as a glucagon receptor (GCGR) antagonist by binding to an extra-helical allosteric site on the receptor. […] In FIG. 6, the addition of compound I-20 can increase the efficacy and potency of […] inhibiting PACAP-stimulated ERK activation.
In FIG. 7, all samples were pretreated with 25 μM acyl hydrazide before 25 nM PACAP application. Glucagon antagonist is I-20. Data normalized to total cellular ERK not shown.

PAC1 receptor [3] = molecular target: T1, PAC1 receptor; test: PACAP-stimulated PAC1-EGFP receptor internalization in stable HEK cell line; type: cell-based
Method: as §1

- PACAP-stimulated calcium signal blocked (PAC1 receptor [1]; 2.5 μM compound): approximately 50%
- PACAP-stimulated calcium signal/flux (PAC1 receptor [1]; 25 μM compound): abolished
- PACAP-stimulated ERK activation (PAC1 receptor [2]; 25 μM compound, 25 nM PACAP, FIG. 3): near control levels
- IC50 (PAC1 receptor [2]; normalized to total ERK levels, approximate/apparent, FIG. 4, read-out: IC50 in inhibiting PACAP-stimulated ERK activation): 8 to 10 µM
- PACAP-stimulated receptor internalization (PAC1 receptor [3]; 15 min pretreatment with 10-25 μM compound, 25 nM PACAP, 15 min, FIG. 1): blocked
Compound: O=C(N/N=C/c1cccc2c1ccn2Cc1cc(F)cc(F)c1)c1ccc(O)c(Cl)c1 [Compound I-1, (E)-3-chloro-N′-((1-(3,5-difluorobenzyl)-1H-indol-4-yl)methylene)-4-hydroxybenzohydrazide]
- Open field center field time, compound alone compared to control (male rats; 5-10 μM infusion into the BNST, no PACAP): no apparent effects
- PACAP-induced stress/anxiety responses (open field center field time) (male rats; BNST preinjection of compound before PACAP infusion): completely blocked

- PAC1 receptor-mediated calcium flux (PAC1 receptor [1]): completely blocking
- PAC1 receptor endosomal/ligand-mediated ERK activation (PAC1 receptor [2]): without apparent effects
Compound: Cc1cc(C)c(C)c(Cn2ccc3c(/C=N/NC(=O)c4ccc(O)c(Cl)c4)cccc32)c1C [Compound I-19, (E)-3-chloro-4-hydroxy-N′-((1-(2,3,5,6-tetramethylbenzyl)-1H-indol-4-yl)methylene)benzohydrazide]

- ERK activation attenuated (PAC1 receptor [2]; 25 μM compound, FIG. 5): approximately 50%
- Antagonism at the PAC1-receptor compared to I-1 (PAC1 receptor [2]; FIG. 5): weak antagonist
- PACAP-stimulated ERK activation, combination (PAC1 receptor [2]; I-20 together with 10 μM I-1, FIG. 6): basal or near-basal levels
Compound: COc1ccc2cc(-c3cc(-c4cc(Cl)cc(Cl)c4)nn3C(C)c3ccc(C(=O)NCCC(=O)O)cc3)ccc2c1 (stereo not drawn) [Compound I-20]

- PAC1 receptor-mediated calcium flux (PAC1 receptor [1]): attenuate
- PAC1 receptor endosomal/ligand-mediated ERK activation (PAC1 receptor [2]): modest effects
- PAC1 receptor internalization (PAC1 receptor [3]; concentration not given): modest effects
Compound: O=C(N/N=C/c1cccc2c1ccn2Cc1cccc(C(F)(F)F)c1)c1ccc(O)c(Cl)c1 [Compound I-21, reference compound]
